{
  "source": "patent US5279835A",
  "about": "“Binder-free orally administrable tablet containing 3-oxygermylpropionic acid” (Sanwa Kagaku Kenkyusho Co. Ltd., priority 1991, dated 1994)",
  "key": {"[1]": {"system": "delayed type hypersensitivity reactions (DTH reactions) using sheep red blood cells (SRBCs) as antigens", "assay": "Delayed type hypersensitivity (DTH) reaction, pododerm swelling, in Sarcoma-180 bearing ICR mice sensitized with SRBCs", "type": "in vivo", "details": "n = 10; for Pododerm Swelling, Average: Table 1-2 (MGWC 55.5, SMG 115.5)", "method": "The effects of 3-OGP, salts and hydroxypropylcellulose incorporated in compositions were investigated by delayed type hypersensitivity reactions (DTH reactions) using sheep red blood cells (SRBCs) as antigens.\nSarcoma-180 cells (10^6) were intraperitoneally transplanted in test animals--ICR mice (seven-week old), 10 for each group. Then, SRBCs (10^6) were injected into each animal through the vein of the tail for sensitization.\nFour days later, SRBCs (2×10^8) were injected into the pododerm of the right hind leg to induce the DTH reaction and, 24 hours later, the thickness of the pododerm was measured. Note that the test drugs were administrated to the animals in the form of a feed mix 4 days before sensitization."}, "[2]": {"system": "spontaneous nephritis in MRL/1 mice", "assay": "Prevention of spontaneous nephritis in MRL/1 mice (urinary protein, blood urea nitrogen, histopathology)", "type": "in vivo", "method": "The effect of 3-OGP on preventing spontaneous nephritis in MRL/1 mice was investigated.\n2-B) The preparation of Ex. 6 was orally administrated to test animals--MRL/1 mice of six-week old, 15 for each group--at daily doses of 0.1 mg/kg, 1.0 mg/kg and 10.0 mg/kg calculated as 3-OGP twice a week over 12 weeks. It is noted that this preparation was administrated to each animal in the form of a feed mix. […] In addition, the urea nitrogen content of blood on the day following the final administration were measured to make sero-biochemical as well as histopathological estimations of the action of the 3-OGP compositions on nephritis.\nIt is noted that the urinary protein was determined with Protein Pretest (made by Wako Junyaku) and the urea nitrogen content of blood was estimated with Urea Nitrogen Test B: Urease/Indophenol Method (made by Wako Junyaku)."}},
  "data": [
    {"substance": "3-oxygermylpropionic acid [Example 3-OGP]", "values": [
      {"measurement": "Pododerm Swelling, Average Standard Deviation", "setting": "[1]; Table 1-1, first series (MGWC 47.1, SMG 115.4), 0.1 mg/kg in feed mix", "value": "55.1 3.3 × 0.01 mm"},
      {"measurement": "Pododerm Swelling, Average Standard Deviation", "setting": "[1]; Table 1-1, first series (MGWC 47.1, SMG 115.4), 1 mg/kg in feed mix", "value": "73.8 5.7 × 0.01 mm"},
      {"measurement": "Pododerm Swelling, Average Standard Deviation", "setting": "[1]; Table 1-1, first series (MGWC 47.1, SMG 115.4), 10 mg/kg in feed mix", "value": "70.2 5.1 × 0.01 mm"},
      {"measurement": "Pododerm Swelling, Average Standard Deviation", "setting": "[1]; Table 1-1, second series (MGWC 48.9, SMG 117.4), 0.1 mg/kg in feed mix", "value": "64.3 6.4 × 0.01 mm"},
      {"measurement": "Pododerm Swelling, Average Standard Deviation", "setting": "[1]; Table 1-1, second series (MGWC 48.9, SMG 117.4), 1 mg/kg in feed mix", "value": "72.1 5.5 × 0.01 mm"},
      {"measurement": "Pododerm Swelling, Average Standard Deviation", "setting": "[1]; Table 1-1, second series (MGWC 48.9, SMG 117.4), 10 mg/kg in feed mix", "value": "66.3 3.1 × 0.01 mm"},
      {"measurement": "Pododerm Swelling, Average", "setting": "[1]; 0.1 mg/kg in feed mix", "value": 63.5, "unit": "× 0.01 mm"},
      {"measurement": "Pododerm Swelling, Average", "setting": "[1]; 1 mg/kg in feed mix", "value": 77.0, "unit": "× 0.01 mm"},
      {"measurement": "Pododerm Swelling, Average", "setting": "[1]; 10 mg/kg in feed mix", "value": 73.2, "unit": "× 0.01 mm"},
      {"measurement": "increase in urea nitrogen content of blood", "setting": "[2]; 10 mg/kg of 3-OGP", "value": "significantly inhibited"},
      {"measurement": "increase in urinary protein", "setting": "[2]; 10 mg/kg of 3-OGP, after 12 weeks", "value": "significantly inhibited even after 12 weeks"},
      {"measurement": "glomeruli with lesion severer than mediocre membranous glomerulonephritis", "setting": "[2]; group treated with 3-OGP, control 60%", "value": "20-36%"},
      {"measurement": "urinary protein increase", "setting": "[2]; groups treated with 3-OGP, control increased after 9 to 10 weeks", "value": "any urinary protein increase was not found"},
      {"measurement": "Urinary Protein in %", "setting": "[2]; preparation of Ex. 6, 0.1 mg/kg as 3-OGP, after 10 weeks, positive = 100 mg/dl or more (control 52.3)", "value": 28.7, "unit": "%"},
      {"measurement": "Urinary Protein in %", "setting": "[2]; preparation of Ex. 6, 0.1 mg/kg as 3-OGP, after 11 weeks (control 66.6)", "value": 47.1, "unit": "%"},
      {"measurement": "Urinary Protein in %", "setting": "[2]; preparation of Ex. 6, 0.1 mg/kg as 3-OGP, after 12 weeks (control 91.3)", "value": 65.6, "unit": "%"},
      {"measurement": "Urinary Protein in %", "setting": "[2]; preparation of Ex. 6, 1 mg/kg as 3-OGP, after 10 weeks (control 52.3)", "value": 28.1, "unit": "%"},
      {"measurement": "Urinary Protein in %", "setting": "[2]; preparation of Ex. 6, 1 mg/kg as 3-OGP, after 11 weeks (control 66.6)", "value": 23.8, "unit": "%"},
      {"measurement": "Urinary Protein in %", "setting": "[2]; preparation of Ex. 6, 1 mg/kg as 3-OGP, after 12 weeks (control 91.3)", "value": 51.0, "unit": "%"},
      {"measurement": "Urinary Protein in %", "setting": "[2]; preparation of Ex. 6, 10 mg/kg as 3-OGP, after 10 weeks (control 52.3)", "value": 15.8, "unit": "%"},
      {"measurement": "Urinary Protein in %", "setting": "[2]; preparation of Ex. 6, 10 mg/kg as 3-OGP, after 11 weeks (control 66.6)", "value": 27.5, "unit": "%"},
      {"measurement": "Urinary Protein in %", "setting": "[2]; preparation of Ex. 6, 10 mg/kg as 3-OGP, after 12 weeks (control 91.3)", "value": 53.3, "unit": "%"}
    ]}
  ]
}
